Experiment [1] concerns the target Cyclin-dependent kinase 11B (Homo sapiens) (UniProt P21127). Put plainly: Selectivity interaction (KinomeScan (DiscoverX)) EUB0001619a CDK11B. Particulars: at 1 µM.
The target of experiment [2] is Non-receptor tyrosine-protein kinase TYK2 (Homo sapiens, UniProt P29597). Put plainly: Selectivity interaction (KinomeScan (DiscoverX)) EUB0000695a TYK2. Particulars: at 100 nM.
For experiment [3], the target named is Tyrosine-protein kinase Lyn (Homo sapiens, UniProt P07948). Put plainly: Selectivity interaction (KinomeScan (DiscoverX)) EUB0000666a LYN. Conditions: at 10 µM.
The target of experiment [4] is Interleukin-1 receptor-associated kinase 1 (Homo sapiens) (UniProt P51617). Briefly: Selectivity interaction (KinomeScan (DiscoverX)) EUB0000666a IRAK1. Particulars: at 10 µM.
In experiment [5] the target is Tyrosine-protein kinase Blk (Homo sapiens) (UniProt P51451). Briefly: Selectivity interaction (KinomeScan (DiscoverX)) EUB0000666a BLK. Conditions: at 10 µM.
Experiment [6] concerns the target T1, Dual specificity mitogen-activated protein kinase kinase 4 (Homo sapiens) (UniProt P45985).
T1 sequence (whole entry): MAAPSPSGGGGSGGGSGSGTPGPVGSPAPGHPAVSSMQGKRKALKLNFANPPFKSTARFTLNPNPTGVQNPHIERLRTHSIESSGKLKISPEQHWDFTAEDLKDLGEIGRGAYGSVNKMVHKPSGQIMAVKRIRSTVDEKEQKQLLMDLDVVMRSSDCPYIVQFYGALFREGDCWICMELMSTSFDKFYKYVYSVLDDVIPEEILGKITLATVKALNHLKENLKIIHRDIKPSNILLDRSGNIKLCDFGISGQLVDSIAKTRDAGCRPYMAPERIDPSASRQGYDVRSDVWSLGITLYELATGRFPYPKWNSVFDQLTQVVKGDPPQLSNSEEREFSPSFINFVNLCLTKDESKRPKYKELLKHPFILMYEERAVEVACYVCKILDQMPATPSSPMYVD
Briefly: Selectivity interaction (ActivX KiNativ screen (kinase selectivity in THP-1 cell lysates)) EUB0000639a MAP2K4. In kind it is subcellular. Particulars: lysate, at 1 µM.

In experiment [7] the target is Serine/threonine-protein kinase Nek7 (Homo sapiens) (UniProt Q8TDX7). Put plainly: Selectivity interaction (Kinase panel (Invitrogen)) EUB0000639a NEK7. Conditions: at 200 nM.
The target of experiment [8] is Ribosomal protein S6 kinase alpha-3 (Homo sapiens, UniProt P51812). Put plainly: Selectivity interaction (ActivX KiNativ screen (kinase selectivity in THP-1 cell lysates)) EUB0000639a RPS6KA3. In kind it is subcellular. Particulars: lysate, at 0.04 µM.
Experiment [9] addresses Ribosomal protein S6 kinase beta-2 (Homo sapiens) (UniProt Q9UBS0). Put plainly: Selectivity interaction (ProQinase) EUB0000171b RPS6KB2.
The target in experiment [10] is Tyrosine-protein kinase Fgr (Homo sapiens) (UniProt P09769). Put plainly: Selectivity interaction (KinomeScan (DiscoverX)) EUB0001049a FGR. Particulars: at 1 µM.
For experiment [11], the target named is Mitogen-activated protein kinase 3 (Homo sapiens, UniProt P27361). Put plainly: Selectivity interaction (Upstate Kinase Profiler service (Millipore)) EUB0000056c MAPK3. Particulars: at 1 µM.
For experiment [12], the target named is Mitogen-activated protein kinase 8 (Homo sapiens, UniProt P45983). Put plainly: Selectivity interaction (KinomeScan (DiscoverX)) EUB0000092b MAPK8. Particulars: at 10 µM.
The target of experiment [13] is DNA (cytosine-5)-methyltransferase 3A (Homo sapiens) (UniProt Q9Y6K1). Briefly: Selectivity interaction (Methyltransferase screen (radiometric assays, panel of 8 PRMTs, 21 protein lysine methyltransferases, 3 DNA methyltransferases, and one RNA methyltransferase)) EUB0000272b DNMT3A.
The test system of experiment [14] is Phosphatidylinositol 4,5-bisphosphate 3-kinase catalytic subunit alpha isoform (Homo sapiens), P42336 [E542K]. Put plainly: (§1) Selectivity interaction (KinomeScan (DiscoverX)) EUB0001079a PIK3CA. Conditions: at 1 µM.
The target of experiment [15] is Phosphatidylinositol 4,5-bisphosphate 3-kinase catalytic subunit alpha isoform (Homo sapiens) (UniProt P42336). Described as §1. Particulars: at 1 µM.
For experiment [16], the system named is Phosphatidylinositol 4,5-bisphosphate 3-kinase catalytic subunit alpha isoform (Homo sapiens), P42336 [I800L]. Described as §1. Conditions: at 1 µM.
The test system of experiment [17] is Phosphatidylinositol 4,5-bisphosphate 3-kinase catalytic subunit alpha isoform (Homo sapiens), P42336 [E545A]. The description is as §1. Particulars: at 1 µM.
Experiment [18] relates to Phosphatidylinositol 4,5-bisphosphate 3-kinase catalytic subunit alpha isoform (Homo sapiens), P42336 [H1047Y]. The experiment is described as §1. Particulars: at 1 µM.
In experiment [19] the test system is Phosphatidylinositol 4,5-bisphosphate 3-kinase catalytic subunit alpha isoform (Homo sapiens), P42336 [Q546K]. Described as §1. Conditions: at 1 µM.
For experiment [20], the system named is Phosphatidylinositol 4,5-bisphosphate 3-kinase catalytic subunit alpha isoform (Homo sapiens), P42336 [E545K]. Described as §1. Particulars: at 1 µM.
The test system of experiment [21] is Phosphatidylinositol 4,5-bisphosphate 3-kinase catalytic subunit alpha isoform (Homo sapiens), P42336 [H1047L]. Described as §1. Particulars: at 1 µM.
The subject of experiment [22] is Phosphatidylinositol 4,5-bisphosphate 3-kinase catalytic subunit alpha isoform (Homo sapiens), P42336 [M1043I]. The experiment is described as §1. Particulars: at 1 µM.
Experiment [23] concerns Phosphatidylinositol 4,5-bisphosphate 3-kinase catalytic subunit alpha isoform (Homo sapiens), P42336 [C420R]. Described as §1. Conditions: at 1 µM.
The target in experiment [24] is T2, SNF-related serine/threonine-protein kinase (Homo sapiens) (UniProt Q9NRH2).
T2 sequence (whole entry): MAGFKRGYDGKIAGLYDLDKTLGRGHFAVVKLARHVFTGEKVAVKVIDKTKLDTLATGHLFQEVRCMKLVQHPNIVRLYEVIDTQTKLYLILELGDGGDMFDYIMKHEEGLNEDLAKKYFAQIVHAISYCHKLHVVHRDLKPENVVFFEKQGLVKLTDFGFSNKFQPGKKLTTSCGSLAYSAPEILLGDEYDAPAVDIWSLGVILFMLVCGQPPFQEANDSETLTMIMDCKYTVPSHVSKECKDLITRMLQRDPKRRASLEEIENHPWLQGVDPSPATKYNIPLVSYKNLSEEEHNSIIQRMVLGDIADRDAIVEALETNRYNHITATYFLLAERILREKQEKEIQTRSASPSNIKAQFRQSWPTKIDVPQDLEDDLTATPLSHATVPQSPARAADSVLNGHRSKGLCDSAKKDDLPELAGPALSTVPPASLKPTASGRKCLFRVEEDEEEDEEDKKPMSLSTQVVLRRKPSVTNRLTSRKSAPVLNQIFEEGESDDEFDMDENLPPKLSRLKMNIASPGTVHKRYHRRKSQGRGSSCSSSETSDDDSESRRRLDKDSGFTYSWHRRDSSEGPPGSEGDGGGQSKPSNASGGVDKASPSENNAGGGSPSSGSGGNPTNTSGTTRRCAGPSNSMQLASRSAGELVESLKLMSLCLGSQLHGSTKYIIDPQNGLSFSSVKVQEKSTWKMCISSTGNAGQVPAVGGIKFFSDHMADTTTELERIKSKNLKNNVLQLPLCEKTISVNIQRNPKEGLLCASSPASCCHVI
Put plainly: Selectivity interaction (KinomeScan (DiscoverX)) EUB0001079a SNRK. Particulars: at 1 µM.

Experiment [25] has as its target Ephrin type-A receptor 7 (Homo sapiens) (UniProt Q15375). Briefly: Selectivity interaction (KinomeScan (DiscoverX)) EUB0000229b EPHA7. Conditions: at 10 µM.

SMILES strings stand for the structures.

Sequence of DNA (cytosine-5)-methyltransferase 3A (Homo sapiens) (Q9Y6K1 whole entry, looked up, canonical isoform): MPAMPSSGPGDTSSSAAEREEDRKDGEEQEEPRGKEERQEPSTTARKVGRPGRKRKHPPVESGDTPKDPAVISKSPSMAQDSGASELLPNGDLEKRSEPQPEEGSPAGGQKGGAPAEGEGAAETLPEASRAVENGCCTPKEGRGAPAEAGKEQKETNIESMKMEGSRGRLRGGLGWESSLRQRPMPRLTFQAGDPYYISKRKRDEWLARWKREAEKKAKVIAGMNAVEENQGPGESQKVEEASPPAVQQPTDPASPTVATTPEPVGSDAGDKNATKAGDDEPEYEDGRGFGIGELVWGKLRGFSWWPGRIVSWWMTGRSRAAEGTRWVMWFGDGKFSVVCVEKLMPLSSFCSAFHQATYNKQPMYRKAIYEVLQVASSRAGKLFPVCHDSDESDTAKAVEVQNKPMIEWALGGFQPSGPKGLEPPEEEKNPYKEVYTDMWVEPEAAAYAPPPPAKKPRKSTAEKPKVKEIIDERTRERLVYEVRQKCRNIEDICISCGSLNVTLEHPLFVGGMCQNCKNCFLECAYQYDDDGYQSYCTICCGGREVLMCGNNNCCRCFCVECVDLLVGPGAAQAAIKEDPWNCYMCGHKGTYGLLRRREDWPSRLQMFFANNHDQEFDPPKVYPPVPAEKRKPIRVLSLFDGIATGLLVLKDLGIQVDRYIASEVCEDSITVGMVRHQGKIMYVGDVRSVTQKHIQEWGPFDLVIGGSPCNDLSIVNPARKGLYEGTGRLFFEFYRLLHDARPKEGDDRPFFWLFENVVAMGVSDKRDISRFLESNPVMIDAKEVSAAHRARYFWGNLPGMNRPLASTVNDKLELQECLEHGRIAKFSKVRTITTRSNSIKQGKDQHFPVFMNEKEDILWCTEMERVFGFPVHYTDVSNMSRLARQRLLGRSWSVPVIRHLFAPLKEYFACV
Sequence of Ribosomal protein S6 kinase beta-2 (Homo sapiens) (Q9UBS0 whole entry): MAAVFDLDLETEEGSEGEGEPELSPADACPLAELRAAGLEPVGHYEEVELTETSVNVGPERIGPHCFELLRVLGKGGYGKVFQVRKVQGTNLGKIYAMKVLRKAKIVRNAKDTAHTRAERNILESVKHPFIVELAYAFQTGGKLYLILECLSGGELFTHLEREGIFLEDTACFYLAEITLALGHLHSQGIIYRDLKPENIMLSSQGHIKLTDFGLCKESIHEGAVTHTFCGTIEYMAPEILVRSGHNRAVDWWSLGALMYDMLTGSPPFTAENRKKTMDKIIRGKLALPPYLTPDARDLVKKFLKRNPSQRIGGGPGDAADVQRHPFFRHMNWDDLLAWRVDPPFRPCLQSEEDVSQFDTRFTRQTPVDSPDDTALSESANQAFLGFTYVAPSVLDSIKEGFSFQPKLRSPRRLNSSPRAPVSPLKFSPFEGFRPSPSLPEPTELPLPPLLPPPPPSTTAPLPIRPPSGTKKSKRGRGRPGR
Sequence of Phosphatidylinositol 4,5-bisphosphate 3-kinase catalytic subunit alpha isoform (Homo sapiens), P42336 [E542K] (P42336 whole entry E542K, canonical isoform): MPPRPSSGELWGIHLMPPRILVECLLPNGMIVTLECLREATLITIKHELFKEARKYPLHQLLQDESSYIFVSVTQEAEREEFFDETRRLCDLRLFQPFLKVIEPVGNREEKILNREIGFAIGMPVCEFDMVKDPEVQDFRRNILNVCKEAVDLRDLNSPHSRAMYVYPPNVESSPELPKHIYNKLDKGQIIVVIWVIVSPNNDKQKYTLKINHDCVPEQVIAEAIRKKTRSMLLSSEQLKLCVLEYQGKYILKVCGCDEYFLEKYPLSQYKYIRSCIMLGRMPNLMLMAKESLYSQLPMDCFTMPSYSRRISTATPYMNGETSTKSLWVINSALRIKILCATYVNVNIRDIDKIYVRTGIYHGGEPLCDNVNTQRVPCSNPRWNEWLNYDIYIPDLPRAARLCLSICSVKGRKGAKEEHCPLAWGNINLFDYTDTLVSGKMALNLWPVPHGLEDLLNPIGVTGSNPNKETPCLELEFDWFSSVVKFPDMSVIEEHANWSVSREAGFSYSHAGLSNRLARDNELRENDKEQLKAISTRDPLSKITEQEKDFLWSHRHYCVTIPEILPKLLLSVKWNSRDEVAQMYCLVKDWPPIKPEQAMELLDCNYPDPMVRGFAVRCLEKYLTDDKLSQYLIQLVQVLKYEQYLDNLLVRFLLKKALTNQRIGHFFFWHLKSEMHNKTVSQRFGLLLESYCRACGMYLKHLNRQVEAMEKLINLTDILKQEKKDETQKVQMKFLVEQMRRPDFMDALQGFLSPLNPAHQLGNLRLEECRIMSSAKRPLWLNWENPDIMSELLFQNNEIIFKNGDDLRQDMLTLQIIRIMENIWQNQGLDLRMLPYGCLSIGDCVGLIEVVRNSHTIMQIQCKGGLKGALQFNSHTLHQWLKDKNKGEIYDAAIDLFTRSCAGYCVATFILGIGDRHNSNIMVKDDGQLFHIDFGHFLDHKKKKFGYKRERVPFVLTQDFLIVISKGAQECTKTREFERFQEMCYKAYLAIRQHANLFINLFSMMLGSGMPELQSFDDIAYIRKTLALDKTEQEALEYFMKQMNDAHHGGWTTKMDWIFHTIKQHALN
Sequence of Phosphatidylinositol 4,5-bisphosphate 3-kinase catalytic subunit alpha isoform (Homo sapiens), P42336 [H1047L] (P42336 whole entry H1047L, canonical isoform): as the sequence (P42336 whole entry E542K, canonical isoform) above, with K542E, H1047L counted along it
Sequence of Ribosomal protein S6 kinase alpha-3 (P51812 whole entry): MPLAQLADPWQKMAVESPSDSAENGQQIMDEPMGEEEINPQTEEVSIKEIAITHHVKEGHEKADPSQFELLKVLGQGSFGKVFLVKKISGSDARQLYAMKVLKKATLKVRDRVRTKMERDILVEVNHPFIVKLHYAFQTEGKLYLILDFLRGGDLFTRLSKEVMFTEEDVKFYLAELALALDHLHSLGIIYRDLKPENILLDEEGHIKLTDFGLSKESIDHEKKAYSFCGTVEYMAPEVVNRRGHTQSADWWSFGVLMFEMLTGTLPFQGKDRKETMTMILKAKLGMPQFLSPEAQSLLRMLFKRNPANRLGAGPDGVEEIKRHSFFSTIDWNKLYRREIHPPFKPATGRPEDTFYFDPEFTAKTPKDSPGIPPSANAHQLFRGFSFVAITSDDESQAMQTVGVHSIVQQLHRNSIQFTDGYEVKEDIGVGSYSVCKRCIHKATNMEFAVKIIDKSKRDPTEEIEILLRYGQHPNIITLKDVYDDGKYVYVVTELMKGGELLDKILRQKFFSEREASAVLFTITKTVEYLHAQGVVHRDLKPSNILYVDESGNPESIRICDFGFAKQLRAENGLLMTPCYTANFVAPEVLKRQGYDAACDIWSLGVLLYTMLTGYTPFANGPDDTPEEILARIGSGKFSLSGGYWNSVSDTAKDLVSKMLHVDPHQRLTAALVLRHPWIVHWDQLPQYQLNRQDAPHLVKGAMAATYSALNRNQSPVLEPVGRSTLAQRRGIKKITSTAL
Sequence of Cyclin-dependent kinase 11B (Homo sapiens) (P21127 whole entry): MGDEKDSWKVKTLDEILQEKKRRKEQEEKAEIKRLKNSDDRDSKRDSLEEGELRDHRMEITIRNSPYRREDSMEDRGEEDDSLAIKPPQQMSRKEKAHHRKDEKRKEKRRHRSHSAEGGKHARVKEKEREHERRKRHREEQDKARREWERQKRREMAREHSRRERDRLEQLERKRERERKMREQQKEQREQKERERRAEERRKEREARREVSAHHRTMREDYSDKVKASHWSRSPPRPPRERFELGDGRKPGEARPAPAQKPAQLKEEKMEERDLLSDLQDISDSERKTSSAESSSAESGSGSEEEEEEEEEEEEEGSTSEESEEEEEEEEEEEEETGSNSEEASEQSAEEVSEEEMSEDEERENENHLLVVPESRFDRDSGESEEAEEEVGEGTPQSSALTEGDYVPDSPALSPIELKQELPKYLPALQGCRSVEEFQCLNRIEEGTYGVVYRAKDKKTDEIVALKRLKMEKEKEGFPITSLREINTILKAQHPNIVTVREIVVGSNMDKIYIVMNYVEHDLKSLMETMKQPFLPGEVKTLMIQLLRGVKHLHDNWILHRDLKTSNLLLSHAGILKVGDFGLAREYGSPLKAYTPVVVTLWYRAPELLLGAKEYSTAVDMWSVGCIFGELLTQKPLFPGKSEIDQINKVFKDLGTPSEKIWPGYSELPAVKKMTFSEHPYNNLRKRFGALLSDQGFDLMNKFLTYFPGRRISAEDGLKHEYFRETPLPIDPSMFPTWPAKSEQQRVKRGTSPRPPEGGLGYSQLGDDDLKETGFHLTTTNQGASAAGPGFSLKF

`N#Cc1cccc(-c2c[nH]c3ncnc(N4CCOCC4)c23)c1` registered a % of control in experiment [1] of 100%.
Take `Cc1cc(F)c(C(=O)Nc2cccc(-c3nncn3C(C)C)n2)cc1-n1cnc(C2CC2)c1`: the % of control in [2] turned out to be 81%.
As for `O=C(NOC[C@H](O)CO)c1ccc(F)c(F)c1Nc1ccc(I)cc1F`, the values for the % of control in experiment [3], in experiment [4] and in experiment [5] were 72%, 100% and 83%, respectively.
In the case of `CC[C@@H]1[C@H](F)C(=O)N[C@@H]1COc1nccc2cc(C(N)=O)c(OC)cc12` [ZIMLOVISERTIB], the % of inhibition in experiment [6] was 17.3%; in [7] it was -1.03%; in [8], 16.1%.
For the molecule `C=CC(=O)Nc1cccc(C(=O)Nc2ccc(Nc3cc(-c4[nH]c(SC)nc4C)ccn3)cc2)c1`, the % of control in experiment [9] (at 1 µM) came to 87%; in [9] (at 5 µM), 79%.
For the molecule `COc1cc(Nc2nc(C)cc(-c3cnn4nc(OC)ccc34)n2)cc(C(F)(F)F)c1`, the % of control in experiment [10] was determined as 94%.
With `Cc1ccc(-c2ccc3c(ccc4sc5c(c43)NC[C@@H](C)NC5=O)n2)cn1`, in experiment [11], the % of inhibition was -1%.
`CCC(=O)N1CCN(c2ccc(-n3c(=O)ccc4cnc5ccc(-c6cnc7ccccc7c6)cc5c43)cc2C(F)(F)F)CC1` registered a % of control in experiment [12] of 22%.
Turning to `Cc1cc(C)cc([C@H]2c3cc(C)ccc3NC(=O)CN2C(=O)c2ccc(Br)s2)c1`, the % of activity in experiment [13] (at 1 µM) amounted to 98.3%; in experiment [13] (at 10 µM), 93%.
As for `Nc1cnc(N2CCc3cc(S(=O)(=O)Nc4c(F)cc(Cl)cc4F)cc(N4CCCC4=O)c32)nc1` [TP-020n], the % of control came out at 72% in [14]; 76% in [15]; 80% in [16]; 100% in experiment [17]; 100% in experiment [18]; 78% in [19]. The % of control in experiment [20] was 100%; in experiment [21], 60%; in experiment [22], 100%; in experiment [23], 84%; in experiment [24] it was 100%.
As for `COc1cc(N(C)c2ccnc3ccc(C(F)(F)F)cc23)cc(OC)c1OC`, the % binding in [25] was determined as 99%.
